Among the data in US8198273B2, “Compounds and methods for kinase modulation, and indications therefor” (Plexxikon Inc., priority 2009, dated 2012) are IC50 values, retold here.

The subject of series [1] is A375 melanoma cells (B-Raf V600E). In words: A375 cell growth inhibition (ATPlite). The class given is cell-based. The note with it: Homo sapiens, A-375, 72 h; A375, 3 days incubation. In a few lines: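 ATPlite luminescence, taken as a cell-number measure, gave IC50 values after a 3-day 37° C, 5% CO2 incubation. Compounds were tested as 8-point threefold titrations, highest final concentration 10 μM, added to cells seeded the day before.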
A general note: In ATP-based viability assays light output follows the ATP content of the culture.

Series [2] addresses CYP2C9 (Homo sapiens, UniProt P11712). The series can be described thus: CYP2C9 inhibition (fluorescent substrate). The class given is in vitro ADME. The note with it: CYP2C9, MFC substrate; read-out: Cyp IC50 2C9. How it is done: (§1) CYP (Cytochrome P450) enzymes are the major drug metabolizing enzymes present in the liver. The inhibition of CYP enzyme activity (IC50) for each of CYP1A2, CYP2C19, CYP2C9, CYP2D6, CYP3A4(BFC) and CYP3A4(BQ) is determined for compounds, where inhibition of metabolism of a known substrate leads to a decrease in the fluorescence of the metabolized product. The fluorescence of the product is monitored as a function of compound concentration.
(§2) Compounds are dissolved in dimethyl sulfoxide to a concentration of 100 mM. These are diluted 1 μL into 82 μL of acetonitrile. […] These are then serially diluted 1:1 (160 μL to 160 μL co-factor mix) for a total of 10 points. A 10 μL aliquot of this final mixture is dispensed into 384 well assay plates and incubated for 10 minutes at 37° C. […] Assay plates are incubated at 37° C. […] The signal versus compound concentration is used to determine the IC50. The enzymes and substrates for this assay are obtained from BD Biosciences.

In series [3] the target is B-Raf V600E (Homo sapiens, UniProt P15056, V600E). In words: B-Raf V600E biochemical kinase inhibition (AlphaScreen, biotin-MEK1 substrate). The settings on record: 100 μM ATP. The method, boiled down: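 Serial 1:3 dilutions of compound (0.1 mM DMSO stock, eight points) were added first, then ATP to start the reaction at 100 μM final.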
Background: Bead proximity is the source of the signal in Alpha formats.

For series [4], the target named is CYP2D6 (Homo sapiens, UniProt P10635). In words: CYP2D6 inhibition (fluorescent substrate). The settings on record: CYP2D6, AMMC substrate; read-out: Cyp IC50 2D6. The class given is in vitro ADME. How it is done:
as §1, §2

Series [5] has as its target CYP2C19 (Homo sapiens, UniProt P33261). In words: CYP2C19 inhibition (fluorescent substrate). The class given is in vitro ADME. The settings on record: CYP2C19, CEC substrate; read-out: Cyp IC50 2C19. How it is done: as §1, §2

Molecules are shown by their SMILES.

Sequence of B-Raf V600E (P15056 whole entry V600E): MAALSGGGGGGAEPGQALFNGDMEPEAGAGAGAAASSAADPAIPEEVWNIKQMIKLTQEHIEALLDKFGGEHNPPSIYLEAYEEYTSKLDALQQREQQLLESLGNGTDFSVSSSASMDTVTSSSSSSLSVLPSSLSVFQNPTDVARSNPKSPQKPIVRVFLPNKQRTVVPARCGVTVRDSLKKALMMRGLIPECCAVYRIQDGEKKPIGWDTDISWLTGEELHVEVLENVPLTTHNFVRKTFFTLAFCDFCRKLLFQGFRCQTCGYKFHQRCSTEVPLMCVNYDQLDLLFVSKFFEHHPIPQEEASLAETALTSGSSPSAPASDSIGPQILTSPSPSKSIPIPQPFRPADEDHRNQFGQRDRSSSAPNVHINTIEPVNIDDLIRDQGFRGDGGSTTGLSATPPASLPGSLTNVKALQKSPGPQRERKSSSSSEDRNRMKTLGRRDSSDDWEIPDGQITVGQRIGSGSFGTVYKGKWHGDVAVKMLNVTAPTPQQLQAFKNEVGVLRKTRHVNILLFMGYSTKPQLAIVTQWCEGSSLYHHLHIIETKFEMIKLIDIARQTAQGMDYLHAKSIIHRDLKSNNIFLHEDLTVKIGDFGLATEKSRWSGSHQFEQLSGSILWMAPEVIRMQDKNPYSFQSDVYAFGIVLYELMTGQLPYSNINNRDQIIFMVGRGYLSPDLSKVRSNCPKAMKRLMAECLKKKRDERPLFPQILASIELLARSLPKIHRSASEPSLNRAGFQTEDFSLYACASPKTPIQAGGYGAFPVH
Sequence of CYP2C9 (P11712 whole entry): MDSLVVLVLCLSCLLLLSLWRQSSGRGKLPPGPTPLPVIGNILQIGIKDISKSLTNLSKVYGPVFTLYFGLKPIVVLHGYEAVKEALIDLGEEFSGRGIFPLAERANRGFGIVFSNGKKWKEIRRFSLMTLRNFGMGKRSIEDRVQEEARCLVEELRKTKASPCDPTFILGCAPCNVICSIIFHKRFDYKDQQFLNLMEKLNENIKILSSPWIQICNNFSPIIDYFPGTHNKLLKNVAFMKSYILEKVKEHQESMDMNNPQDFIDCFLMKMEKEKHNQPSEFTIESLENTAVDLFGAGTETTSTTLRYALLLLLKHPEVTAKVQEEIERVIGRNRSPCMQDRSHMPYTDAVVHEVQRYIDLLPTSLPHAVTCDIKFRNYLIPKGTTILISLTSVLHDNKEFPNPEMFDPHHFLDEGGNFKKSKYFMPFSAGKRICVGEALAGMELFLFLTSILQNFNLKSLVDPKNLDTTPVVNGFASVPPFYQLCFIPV
Sequence of CYP2C19 (P33261 whole entry): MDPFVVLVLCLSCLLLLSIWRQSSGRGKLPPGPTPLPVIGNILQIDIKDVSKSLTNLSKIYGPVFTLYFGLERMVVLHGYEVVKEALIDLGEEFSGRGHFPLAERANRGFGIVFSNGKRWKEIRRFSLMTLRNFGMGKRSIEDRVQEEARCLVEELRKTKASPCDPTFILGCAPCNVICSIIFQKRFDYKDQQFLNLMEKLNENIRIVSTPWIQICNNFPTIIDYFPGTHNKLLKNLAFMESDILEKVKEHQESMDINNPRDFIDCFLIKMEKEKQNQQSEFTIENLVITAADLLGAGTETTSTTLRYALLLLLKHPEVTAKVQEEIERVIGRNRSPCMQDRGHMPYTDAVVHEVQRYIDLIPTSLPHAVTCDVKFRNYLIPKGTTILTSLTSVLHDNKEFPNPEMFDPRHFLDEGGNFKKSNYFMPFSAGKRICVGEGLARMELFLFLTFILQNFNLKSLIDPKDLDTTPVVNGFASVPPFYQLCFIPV
Sequence of CYP2D6 (P10635 whole entry): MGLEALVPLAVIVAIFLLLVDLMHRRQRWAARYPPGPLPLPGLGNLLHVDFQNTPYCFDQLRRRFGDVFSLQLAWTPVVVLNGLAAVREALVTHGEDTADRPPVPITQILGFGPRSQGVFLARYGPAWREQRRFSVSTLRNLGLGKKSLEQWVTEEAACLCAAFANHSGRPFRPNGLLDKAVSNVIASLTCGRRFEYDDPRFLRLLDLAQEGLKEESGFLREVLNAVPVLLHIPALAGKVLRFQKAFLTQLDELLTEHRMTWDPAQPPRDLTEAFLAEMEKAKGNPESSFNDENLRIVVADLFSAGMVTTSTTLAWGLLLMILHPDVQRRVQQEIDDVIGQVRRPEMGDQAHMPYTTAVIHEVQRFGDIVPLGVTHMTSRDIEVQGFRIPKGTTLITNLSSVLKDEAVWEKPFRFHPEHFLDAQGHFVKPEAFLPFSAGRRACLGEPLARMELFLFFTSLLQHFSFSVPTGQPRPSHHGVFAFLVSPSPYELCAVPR

In general, IC50 refers to the concentration at which inhibition is half-maximal. With `O=C(c1c(F)ccc(NS(=O)(=O)c2cc(F)ccc2F)c1F)c1c[nH]c2ncc(Cl)cc12` [P-2002, N-[3-(5-Chloro-1H-pyrrolo[2,3-b]pyridine-3-carbonyl)-2,4-difluoro-phenyl]-2,5-difluoro-benzenesulfonamide], the half-inhibitory concentration (IC50) in series [1] is under 1 µM; in series [2] it was 5 to 10 µM; in series [3], under 0.01 µM; in series [4] it was over 10 µM; in series [5], 5 to 10 µM.

In the case of `O=C(c1c(F)ccc(NS(=O)(=O)c2c(F)cccc2F)c1F)c1c[nH]c2ncc(Cl)cc12` [P-2003, N-[3-(5-Chloro-1H-pyrrolo[2,3-b]pyridine-3-carbonyl)-2,4-difluoro-phenyl]-2,6-difluoro-benzenesulfonamide], the IC50 in series [1] was under 1 µM; in series [2], over 10 µM; in series [3] it was under 0.1 µM; in series [4], over 10 µM; in series [5] it was over 10 µM.

For `COc1cnc2[nH]cc(C(=O)c3c(F)ccc(NS(=O)(=O)c4ccccc4F)c3F)c2c1` [P-2009, N-[2,4-Difluoro-3-(5-methoxy-1H-pyrrolo[2,3-b]pyridine-3-carbonyl)-phenyl]-2-fluoro-benzenesulfonamide], the IC50 in series [1] is under 1 µM; in series [2], over 10 µM; in series [3] it was under 0.01 µM; in series [4], over 10 µM; in series [5], over 10 µM.

On to `COc1cnc2[nH]cc(C(=O)c3c(F)ccc(NS(=O)(=O)c4cc(F)ccc4F)c3F)c2c1` [P-2010, N-[2,4-Difluoro-3-(5-methoxy-1H-pyrrolo[2,3-b]pyridine-3-carbonyl)-phenyl]-2,5-difluoro-benzenesulfonamide], for which the IC50 in series [1] is under 1 µM; in series [2] it was over 10 µM; in series [3], under 0.01 µM; in series [4], over 10 µM; in series [5], over 10 µM.

Regarding `N#Cc1cnc2[nH]cc(C(=O)c3c(F)ccc(NS(=O)(=O)c4ccccc4F)c3F)c2c1` [P-2011, N-[3-(5-Cyano-1H-pyrrolo[2,3-b]pyridine-3-carbonyl)-2,4-difluoro-phenyl]-2-fluoro-benzenesulfonamide], the 50% inhibitory concentration (IC50) in series [1] is under 1 µM; in series [2], over 10 µM; in series [3], under 0.01 µM; in series [4] it was over 10 µM; in series [5], over 10 µM.

Consider `Cc1cnc2[nH]cc(C(=O)c3c(F)ccc(NS(=O)(=O)c4ccccc4F)c3F)c2c1` [P-2014, N-[2,4-Difluoro-3-(5-methyl-1H-pyrrolo[2,3-b]pyridine-3-carbonyl)-phenyl]-2-fluoro-benzenesulfonamide], for which the half-maximal inhibitory concentration (IC50) is under 1 µM in series [1]; over 10 µM in series [2]; under 0.01 µM in series [3]; over 10 µM in series [4]; over 10 µM in series [5].

As to `Cc1cnc2[nH]cc(C(=O)c3c(F)ccc(NS(=O)(=O)c4cc(F)ccc4F)c3F)c2c1` [P-2015, N-[2,4-Difluoro-3-(5-methyl-1H-pyrrolo[2,3-b]pyridine-3-carbonyl)-phenyl]-2,5-difluoro-benzenesulfonamide], the IC50 in series [1] is under 1 µM; in series [2], over 10 µM; in series [3], under 0.01 µM; in series [4] it was over 10 µM; in series [5], 5 to 10 µM.

With `Cc1cnc2[nH]cc(C(=O)c3c(F)ccc(NS(=O)(=O)c4cccc(F)c4)c3F)c2c1` [P-2016, N-[2,4-Difluoro-3-(5-methyl-1H-pyrrolo[2,3-b]pyridine-3-carbonyl)-phenyl]-3-fluoro-benzenesulfonamide], the 50% inhibitory concentration (IC50) is under 1 µM in series [1]; under 5 µM in series [2]; under 0.01 µM in series [3]; over 10 µM in series [4]; over 10 µM in series [5].

For `O=C(c1c(F)ccc(NS(=O)(=O)c2ccccc2F)c1F)c1c[nH]c2nccc(Cl)c12` [P-2017, N-[3-(4-Chloro-1H-pyrrolo[2,3-b]pyridine-3-carbonyl)-2,4-difluoro-phenyl]-2-fluoro-benzenesulfonamide], the IC50 in series [1] was under 1 µM; in series [2] it was over 10 µM; in series [3], under 0.01 µM; in series [4], over 10 µM; in series [5] it was over 10 µM.

With `O=C(c1c(F)ccc(NS(=O)(=O)c2cc(F)ccc2F)c1F)c1c[nH]c2nccc(Cl)c12` [P-2018, N-[3-(4-Chloro-1H-pyrrolo[2,3-b]pyridine-3-carbonyl)-2,4-difluoro-phenyl]-2,5-difluoro-benzenesulfonamide], the IC50 in series [1] is under 1 µM; in series [2], over 10 µM; in series [3], under 0.01 µM; in series [4] it was over 10 µM; in series [5], over 10 µM.

In the case of `O=C(c1c(F)ccc(NS(=O)(=O)c2cccc(F)c2)c1F)c1c[nH]c2nccc(Cl)c12` [P-2019, N-[3-(4-Chloro-1H-pyrrolo[2,3-b]pyridine-3-carbonyl)-2,4-difluoro-phenyl]-3-fluoro-benzenesulfonamide], the half-inhibitory concentration (IC50) in series [1] was under 5 µM; in series [2], over 10 µM; in series [3], under 0.01 µM; in series [4], over 10 µM; in series [5] it was over 10 µM.

Turning to `N#Cc1ccnc2[nH]cc(C(=O)c3c(F)ccc(NS(=O)(=O)c4ccccc4F)c3F)c12` [P-2020, N-[3-(4-Cyano-1H-pyrrolo[2,3-b]pyridine-3-carbonyl)-2,4-difluoro-phenyl]-2-fluoro-benzenesulfonamide], the IC50 in series [1] was under 5 µM; in series [2] it was over 10 µM; in series [3], under 0.01 µM; in series [4] it was over 10 µM; in series [5], over 10 µM.

Take `COc1ccnc2[nH]cc(C(=O)c3c(F)ccc(NS(=O)(=O)c4ccccc4F)c3F)c12` [P-2021, N-[2,4-Difluoro-3-(4-methoxy-1H-pyrrolo[2,3-b]pyridine-3-carbonyl)-phenyl]-2-fluoro-benzenesulfonamide]: the IC50 was under 1 µM in series [1]; over 10 µM in series [2]; under 0.1 µM in series [3]; over 10 µM in series [4]; over 10 µM in series [5].

`COc1ccnc2[nH]cc(C(=O)c3c(F)ccc(NS(=O)(=O)c4cc(F)ccc4F)c3F)c12` [P-2022, N-[2,4-Difluoro-3-(4-methoxy-1H-pyrrolo[2,3-b]pyridine-3-carbonyl)-phenyl]-2,5-difluoro-benzenesulfonamide]: the IC50 in series [1] was under 5 µM; in series [2] it was 5 to 10 µM; in series [3] it was under 0.01 µM; in series [4], over 10 µM; in series [5], over 10 µM.

For the compound `COc1ccnc2[nH]cc(C(=O)c3c(F)ccc(NS(=O)(=O)c4cccc(F)c4)c3F)c12` [P-2023, N-[2,4-Difluoro-3-(4-methoxy-1H-pyrrolo[2,3-b]pyridine-3-carbonyl)-phenyl]-3-fluoro-benzenesulfonamide], the IC50 in series [1] was under 1 µM; in series [2] it was 5 to 10 µM; in series [3], under 0.01 µM; in series [4] it was over 10 µM; in series [5], over 10 µM.

With `Cc1cnc2[nH]cc(C(=O)c3c(F)ccc(NS(=O)(=O)c4c(F)cccc4F)c3F)c2c1` [P-2024, N-[2,4-Difluoro-3-(5-methyl-1H-pyrrolo[2,3-b]pyridine-3-carbonyl)-phenyl]-2,6-difluoro-benzenesulfonamide], the IC50 in series [1] is under 5 µM; in series [2] it was over 10 µM; in series [3] it was under 0.1 µM; in series [4], over 10 µM; in series [5] it was over 10 µM.

With `N#Cc1cnc2[nH]cc(C(=O)c3c(F)ccc(NS(=O)(=O)c4c(F)cccc4F)c3F)c2c1` [P-2029, N-[3-(5-Cyano-1H-pyrrolo[2,3-b]pyridine-3-carbonyl)-2,4-difluoro-phenyl]-2,6-difluoro-benzenesulfonamide], the IC50 in series [1] is under 5 µM; in series [2], over 10 µM; in series [3] it was under 0.01 µM; in series [4], over 10 µM; in series [5] it was over 10 µM.

For the compound `N#Cc1cnc2[nH]cc(C(=O)c3cccc(NS(=O)(=O)c4ccccc4)c3F)c2c1` [P-2056, N-[3-(5-Cyano-1H-pyrrolo[2,3-b]pyridine-3-carbonyl)-2-fluoro-phenyl]-benzenesulfonamide], the IC50 in series [1] was under 5 µM; in series [3], under 0.01 µM; in series [4], over 10 µM; in series [5] it was over 10 µM.

On to `CCCS(=O)(=O)Nc1ccc(F)c(C(=O)c2c[nH]c3ncc(-c4ccc(S(=O)(=O)CC)cc4)cc23)c1F` [P-2218, Propane-1-sulfonic acid {3-[5-(4-ethanesulfonyl-phenyl)-1H-pyrrolo[2,3-b]pyridine-3-carbonyl]-2,4-difluoro-phenyl}-amide], for which the IC50 in series [1] was under 0.1 µM; in series [2], over 10 µM; in series [3] it was under 0.1 µM; in series [4], over 10 µM.
